Target: T1, Leukotriene A-4 hydrolase (Homo sapiens, UniProt P09960)
T1 sequence (P09960 whole entry): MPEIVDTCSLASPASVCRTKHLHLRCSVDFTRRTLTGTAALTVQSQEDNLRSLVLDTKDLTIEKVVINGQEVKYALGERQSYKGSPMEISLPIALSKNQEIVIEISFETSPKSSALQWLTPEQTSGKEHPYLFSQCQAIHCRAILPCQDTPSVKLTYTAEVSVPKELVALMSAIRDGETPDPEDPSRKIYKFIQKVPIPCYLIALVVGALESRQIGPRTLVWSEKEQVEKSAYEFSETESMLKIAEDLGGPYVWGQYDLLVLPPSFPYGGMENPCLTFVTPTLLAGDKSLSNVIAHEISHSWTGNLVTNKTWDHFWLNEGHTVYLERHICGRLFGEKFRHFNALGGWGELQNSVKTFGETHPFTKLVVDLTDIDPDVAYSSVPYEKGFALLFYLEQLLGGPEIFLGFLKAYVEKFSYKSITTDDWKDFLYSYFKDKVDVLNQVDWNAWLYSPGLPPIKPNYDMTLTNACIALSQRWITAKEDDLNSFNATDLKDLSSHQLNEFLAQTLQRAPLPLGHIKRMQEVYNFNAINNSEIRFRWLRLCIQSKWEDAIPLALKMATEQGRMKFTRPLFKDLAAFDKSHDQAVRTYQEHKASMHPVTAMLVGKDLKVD
Test: Inhibition of peptidase activity of human recombinant LTA4H expressed in Escherichia coli BL21-AI/pRARE

SMILES	IC50 [µM]
c1ccc(NCc2cccnc2)cc1	1320
Oc1ccc2[nH]ccc2c1	> 1000
CNCc1ccccc1-c1cccs1	1080
Fc1ccc2[nH]ccc2c1	> 1000
OC(c1ccncc1)c1ccc(OCCN2CCCC2)cc1 (centres undefined)	202
O=C(O)C1CCN(CCOc2ccc3[nH]ccc3c2)CC1	1490
c1cc2cc(OCCN3CCCC3)ccc2[nH]1	321
c1ccc(CNc2ccc(OC[C@H]3CCCN3)cc2)cc1	0.207
Oc1ccc(CCc2cc(O)cc(O)c2)cc1 [DIHYDRORESVERATROL]	145

Source: ChEMBL document CHEMBL1158490, “Discovery of leukotriene A4 hydrolase inhibitors using metabolomics biased fragment crystallography” (J Med Chem, 2009)
